Data set [1] addresses T1, porcine kidney dehydropeptidase I (Sus scrofa, UniProt P22412).
T1 construct: Frozen porcine kidney cortex was homogenized; from tissue; host or cells: porcine kidney cortex
T1 sequence (P22412 17-409): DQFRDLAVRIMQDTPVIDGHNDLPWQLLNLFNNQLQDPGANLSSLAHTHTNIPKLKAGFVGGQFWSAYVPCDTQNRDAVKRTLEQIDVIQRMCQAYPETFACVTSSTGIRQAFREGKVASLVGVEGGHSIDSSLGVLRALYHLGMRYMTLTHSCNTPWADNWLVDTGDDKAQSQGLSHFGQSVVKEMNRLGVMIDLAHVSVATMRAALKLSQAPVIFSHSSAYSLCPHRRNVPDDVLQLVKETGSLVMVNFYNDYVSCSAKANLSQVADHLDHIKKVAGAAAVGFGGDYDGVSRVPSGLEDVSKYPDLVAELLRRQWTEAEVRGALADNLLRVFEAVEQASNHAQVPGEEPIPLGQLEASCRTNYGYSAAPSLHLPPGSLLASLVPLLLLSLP
Kind of data set: Inhibitory activity on porcine kidney dehydropeptidase I (DHP-I). In kind it is biochemical. As to the method:
(1) Inhibitory activity on porcine kidney dehydropeptidase I
(i) Purification of porcine dehydropeptidase I
Frozen porcine kidney cortex was homogenized. Butanol (1/4 volume) pre-cooled in a dry ice-acetone bath was added to the homogenate, and the mixture was stirred at 4° C. for 43 hours. The mixture was then dialyzed for one day and centrifuged at 3,000 g for 30 minutes. To the resulting supernatant was added ammonium sulfate. A precipitate at the salt concentration range between 50 and 75% was collected to give a crude enzyme preparation which was re-dissolved in a 50 mM MOPS buffer containing 0.5 M NaCl. The solution was charged on a cilastatin affinity column. Elution with a 50 mM MOPS buffer containing 0.5 M NaCN gave a purified enzyme preparation.
(ii) Measurement of inhibitory activity
The resulting enzyme preparation (3 mU) and an inhibitor were pre-incubatedat 37° C. for 3 hours in 2.7 ml of a 50 mM MOPS buffer (pH 7.4), and then 2.475 ml of the mixture was transferred into a cuvette. As a substrate, 25 microliters of a 5 mM glycyldehydrophenylalanine solution in a 50 mM MOPS buffer (pH 7.4) was added to start an enzymic reaction. The reaction was carried out at 37° C. in a spectrophotometer fitted with a constant-emperature device, and a decrease of the absorbance at 275 nm during a period of 5 minutes was measured. […] An IC50 value was calculated from the percent inhibition data.
One unit (U) is defined as the amount of the enzyme which hydrolyzes 1 micromole of the substrate (glycyldehydrophenylalanine) per minute at a substrate concentration of 0.05 mM at 37° C. in a 50 mM MOPS buffer (pH 7.4).

Data set [2] is described as follows: Pharmacokinetic evaluation: plasma concentration in rats. In kind it is in vivo, Male SD rats. As to conditions: plasma, rat; for AUC: trapezoidal rule; for concentration at 0.5 h: 1/2 h; for concentration at 0.25 h: 1/4 h; for concentration at 5 min: 1/12 h. As to the method: (4) Pharmacokinetic evaluations
Male SD rats ([…]) were divided into groups each consisting of three animals. […] Furthermore, cilastatin was intravenously administered to a 14th group as a control group.
Plasma samples were taken periodically from the carotid artery through a cannula inserted into it at the points of 1/12, 1/4, 1/2, 1, 2, 4, 6, 8 and 24 hours after the administration.
The area under the curve (AUC) of the plasma concentration was determined according to the trapezoidal rule.

[3] abbreviates: substrate glycyldehydrophenylalanine, pH 7.4, 37° C., 3 h pre-incubation, read-out: Concentration producing 50% inhibition (IC50).
The mark [4] stands for this setting: iv 10 mg/kg (cilastatin dose not given).
Where [5] appears, read: iv 10 mg/kg (cilastatin dose not given), N.D.: below the detection limit.

Usually AUC stands for concentration integrated over time.

Where two headings read alike, the source gives them in different places.

Consider `CC(C)CP(=O)(O)C/C(=C\CCCCCCl)C(=O)O` [compound 13, (Z)-8-chloro-2-(hydroxyisobutylphosphinoyl)methyl-2-octenoic acid], for which the IC50 in data set [1] (setting [3]) was determined as 0.044 µM.

Take `CC(C)CP(=O)(O)C/C(=C\CCCC(=O)O)C(=O)O` [Compound No. 14, (Z)-2-(hydroxyisobutylphosphinoyl)methyl-2-heptenedioic acid]: the IC50 in data set [1] (setting [3]) is 0.011 µM. In data set [2] (setting [4]), this molecule yielded an area under the curve (AUC) of 9.3 µg·h/mL, a concentration at 0.5 h of 4.6 µg/mL, a concentration at 0.25 h of 11.3 µg/mL and a concentration at 5 min of 28 µg/mL. In data set [2] (setting [5]), this molecule displayed a concentration at 1 h of 1.4 µg/mL. In data set [2] (iv 10 mg/kg), this molecule displayed a concentration at 2 h of 0.3 µg/mL and a concentration at 4 h of 0.1 µg/mL.

On to `CCCCCCCCC/C=C(\CP(=O)(O)CC(C)C)C(=O)O` [compound 7, (Z)-2-(hydroxyisobutylphosphinoyl)methyl-2-dodecenoic acid], for which, in data set [1] (setting [3]), the IC50 was determined as 0.027 µM.

Consider `CCCCCCCCCCP(=O)(O)C/C(=C\C1CCCCC1)C(=O)O` [compound 4, (Z)-3-cyclohexyl-2-(decylhydroxyphosphinoyl)methylpropenoic acid], for which, in data set [1] (setting [3]), the IC50 stood at 0.068 µM.

As to `CC(C)CP(=O)(O)C/C(=C\CCCSc1ccccc1)C(=O)O` [compound 18, (Z)-2-(hydroxyisobutylphosphinoyl)methyl-6-phenylthio-2-hexenoic acid], the IC50 in data set [1] (setting [3]) came out at 0.021 µM.

As to `O=C(O)/C(=C/C1CCCCC1)CP(=O)(O)CC1CCCC1` [Compound No. 17, (Z)-3-cyclohexyl-2-(cyclopentylmethylhydroxyphosphinoyl)methylpropenoic acid], the IC50 in data set [1] (setting [3]) is 0.018 µM. For the same molecule, in data set [2] (setting [4]), the AUC was 226 µg·h/mL, the concentration at 0.5 h was 55 µg/mL, the concentration at 0.25 h was found to be 74.7 µg/mL and the concentration at 5 min was 86.7 µg/mL. In data set [2] (po 10 mg/kg), this molecule gave an AUC of 18.4 µg·h/mL, a concentration at 0.5 h of 5 µg/mL, a concentration at 0.25 h of 4.1 µg/mL and a concentration at 5 min of 0.5 µg/mL. In data set [2] (po 10 mg/kg), the concentration at 1 h is 5 µg/mL, the concentration at 2 h is 3.2 µg/mL, the concentration at 4 h came to 2.1 µg/mL and the concentration at 6 h came to 1 µg/mL. Moreover, the concentration at 1 h in data set [2] (setting [5]) turned out to be 38 µg/mL. Also, in data set [2] (iv 10 mg/kg), the concentration at 2 h worked out at 25.2 µg/mL, the concentration at 4 h came to 14.8 µg/mL and the concentration at 8 h is 6.4 µg/mL. In data set [2] (iv 10 mg/kg, N.D.: below the detection limit), this molecule showed a concentration at 6 h of 10.8 µg/mL. In data set [2] (iv 10 mg/kg, 24 h, N.D.: below the detection limit), the concentration at 24 h came to 0.5 µg/mL. In addition, the concentration at 8 h in data set [2] (po 10 mg/kg, N.D.: below the detection limit) was 0.1 µg/mL.

Consider `CC1(C)CC1P(=O)(O)C/C(=C\C1CC1)C(=O)O` (stereo not drawn) [compound 15, (Z)-3-cyclopropyl-2-(2,2-dimethylcyclopropylhydroxyphosphinoyl)methylpropenoic acid], for which the IC50 in data set [1] (setting [3]) came to 0.0063 µM.

Regarding `COC(=O)CSCCCCC/C=C(\CP(=O)(O)CC(C)C)C(=O)O` [compound 21, (Z)-2-(hydroxyisobutylphosphinoyl)methyl-8-methoxycarbonylmethylthio-2-octenoic acid], the IC50 in data set [1] (setting [3]) stood at 0.031 µM.

For `CCCCC/C=C(\CP(=O)(O)CC(C)C)C(=O)O` [compound 6, (Z)-2-(hydroxyisobutylphosphinoyl)methyl-2-octenoic acid], the IC50 in data set [1] (setting [3]) stood at 0.046 µM.

With `CC(C)CP(=O)(O)C/C(=C\CCCSc1c[nH]nn1)C(=O)O` [compound 19, (Z)-2-(hydroxyisobutylphosphinoyl)methyl-6-(1,2,3-triazol-4-yl)thio-2-hexenoic acid], the IC50 in data set [1] (setting [3]) was 0.025 µM.

For the molecule `CC(C)C/C=C(\CP(=O)(O)CC(C)C)C(=O)O` [compound 9, (Z)-2-(hydroxyisobutylphosphinoyl)methyl-5-methyl-2-hexenoic acid], in data set [1] (setting [3]), the IC50 was found to be 0.015 µM.

With `CC(C)CP(=O)(O)C/C(=C\CCCSc1nccn1C)C(=O)O` [compound 24, (Z)-2-(hydroxyisobutylphosphinoyl)methyl-6-(1-methylimidazol-2-yl)thio-2-hexenoic acid], in data set [1] (setting [3]), the IC50 turned out to be 0.048 µM.

Take `CC(C)CP(=O)(O)C/C(=C\CCCSc1ncccc1O)C(=O)O` [compound 22, (Z)-6-(3-hydroxy-2-pyridyl)thio-2-(hydroxyisobutylphosphinoyl)methyl-2-hexenoic acid]: the IC50 in data set [1] (setting [3]) is 0.023 µM.

Turning to `CC(C)CP(=O)(O)C/C(=C\CCCCCSCC(=O)O)C(=O)O` [compound 20, (Z)-8-carboxymethylthio-2-(hydroxyisobutylphosphinoyl)methyl-2-octenoic acid], the IC50 in data set [1] (setting [3]) amounted to 0.022 µM.

For `C/C=C(\CP(=O)(O)CC(C)C)C(=O)O` [compound 30, (Z)-2-(hydroxyisobutylphosphinoyl)methyl-2-butenoic acid], the IC50 in data set [1] came to 0.075 µM.

As for `CC(C)CP(=O)(O)C/C(=C\CCCCCSc1ncccc1O)C(=O)O` [compound 25, (Z)-8-(3-hydroxy-2-pyridyl)thio-2-(hydroxyisobutylphosphinoyl)methyl-2-octenoic acid], the IC50 in data set [1] (setting [3]) turned out to be 0.019 µM.

As to `CC(C)P(=O)(O)C/C(=C\C1CCCCC1)C(=O)O` [compound 3, (Z)-3-cyclohexyl-2-(hydroxyisopropylphosphinoyl)methylpropenoic acid], the IC50 in data set [1] (setting [3]) came to 0.042 µM.

As to `CCCCP(=O)(O)C/C(=C\C1CCCCC1)C(=O)O` [Compound No. 1, (Z)-2-(butylhydroxyphosphinoyl)methyl-3-cyclohexylpropenoic acid], the IC50 in data set [1] (setting [3]) was determined as 0.038 µM.

On to `CC(C)CP(=O)(O)C/C(=C\CCCSCCO)C(=O)O` [compound 31, (Z)-6-(2-hydroxyethyl)thio-2-(hydroxyisobutylphosphinoyl)methyl-2-hexenoic acid], for which, in data set [1] (setting [3]), the IC50 came to 0.064 µM.

For the molecule `CC(C)/C=C(\CP(=O)(O)CC(C)C)C(=O)O` [compound 8, (Z)-2-(hydroxyisobutylphosphinoyl)methyl-4-methyl-2-pentenoic acid], the IC50 in data set [1] (setting [3]) was determined as 0.016 µM.

In the case of `O=C(O)/C(=C/C1CC1)CP(=O)(O)CC1CCCCC1` [compound 16, (Z)-2-(cyclohexylmethylhydroxyphosphinoyl)methyl-3-cyclopropylpropenoic acid], the IC50 in data set [1] (setting [3]) amounted to 0.041 µM.

As for `CC(C)CP(=O)(O)C/C(=C\CCc1ccccc1)C(=O)O` [compound 11, (Z)-2-(hydroxyisobutylphosphinoyl)methyl-5-phenyl-2-pentenoic acid], the IC50 in data set [1] (setting [3]) was 0.057 µM.

For the molecule `CC(C)CP(=O)(O)C/C(=C\CCCCl)C(=O)O` [compound 12, (Z)-6-chloro-2-(hydroxyisobutylphosphinoyl)methyl-2-hexenoic acid], the IC50 in data set [1] (setting [3]) was 0.051 µM.

Consider `CCCCP(=O)(O)CC(CC1CCCCC1)C(=O)O` (stereo not drawn) [compound 26, 2-(butylhydroxyphosphinoyl)methyl-3-cyclohexylpropionic acid], for which the IC50 in data set [1] (setting [3]) amounted to 0.028 µM.

As for `CC(C)CP(=O)(O)C/C(=C\c1ccccc1)C(=O)O` [compound 29, (Z)-2-(hydroxyisobutylphosphinoyl)methyl-3-phenylpropenoic acid], the IC50 in data set [1] (setting [3]) stood at 0.06 µM.
